Measured values reported in US20220073553A1, “METHOD FOR EXTRACTING HIGH-PURITY POLYDEOXYRIBONUCLEOTIDE FROM SALMON TESTES” (Bio Medi pharm Co. Ltd., priority 2020, published 2022).
Values joined by “and” are separate entries in the source; they are usually repeats but may differ in a detail not shown here. Equal values may be shown once. No end group written: not given here.

System: sperm from regions of salmon testes
Experiment: Motility of sperm from regions of salmon testes after hormone treatment
Type: cell-based
Settings: regions C of testes of male salmon caught in a river in October; treated with different types of hormones
Protocol: The immature testicular regions A, B, and C are ground and diluted with an artificial seminal plasma. The grinding is performed by the following procedure. First, the testes are cut into small pieces with scissors such that the membranes surrounding the spermatids of the testes are peeled off. […] Here, care should be taken because a high speed of the impeller causes cell disruption, increasing the possibility that impurities may increase. Immature regions (except for regions D where semen leaks out, see FIG. 4) were collected by cutting the testes of male salmon. […] Regions C of the testes of male salmon caught in a river in October were treated with three different types of hormones: hGC, luteinizing hormone-releasing hormone (LhRH), and DHP.

## luteinizing hormone-releasing hormone (QHWSYGLRPG; ends and bridges not checked; UniProt P01148 24-33, looked up) [LhRH, hormone used for comparison with hCG]
  Sperm motility (%): 5% and 5 ± 2.8%
